From ChEMBL document CHEMBL1201862, “PubChem BioAssay data set” (2004) come the findings set out here.

Test systems include RPMI-8226; SNB-19; SNB-75; HCT-116; NCI-H23; A498; NCI/ADR-RES; 786-0; UO-31; OVCAR-8; EKVX; RXF 393; TK-10; U-251; SF-295; SK-OV-3; SN12C; MOLT-4; HL-60; HCC 2998.
Common to all, as to test: growth of human tumour cells (NCI), 48 h

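Values below derive from 48-hour exposures of cells grown in 96-well plates, with endpoints linearly interpolated between the two concentrations bracketing the appropriate inhibition level. GI50: concentration for 50% inhibition of growth.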 Calls of active or inactive are those of the source. No stated cut-off is given here; in the data, active = GI50 up to about 1.1 µM and inactive = higher.

Consider `CC(C)(C)c1cc(-c2ccc(-c3cc(C(C)(C)C)c(O)c(C(C)(C)C)c3)cc2)cc(C(C)(C)C)c1O`, for which the GI50 with RPMI-8226, in the assay with SNB-19, in the assay on SNB-75, with HCT-116, in the assay on NCI-H23 and in the assay with A498 was > 100 µM (inactive) each time. Moreover, the GI50 with NCI/ADR-RES, with 786-0, with UO-31, in the assay with OVCAR-8, in the assay with EKVX and with RXF 393 was > 100 µM (inactive) throughout. Also, the GI50 in the assay with TK-10, in the assay with U-251, in the assay with SF-295, in the assay with SK-OV-3, in the assay on SN12C and in the assay on MOLT-4 was > 100 µM (inactive) throughout. In addition, the GI50 with HL-60 is > 100 µM (inactive).
Consider `O=C(O)c1nc2nc(Cl)c(Cl)nc2[nH]1`, for which the GI50 with RPMI-8226, in the assay on SNB-19, in the assay on SNB-75, with HCT-116, with NCI-H23 and in the assay on A498 was > 100 µM (inactive) in each case. The GI50 with NCI/ADR-RES, with 786-0, with OVCAR-8, with EKVX, with RXF 393 and with TK-10 was > 100 µM (inactive) in each case. Moreover, the GI50 with U-251, in the assay on SF-295, in the assay with SK-OV-3, with SN12C, in the assay with MOLT-4 and in the assay with HL-60 was > 100 µM (inactive) in each case.
In the case of `CO[C@]12CC(=O)C3(C(C[C@H]4CC5CC[C@H]6C[C@@H](OC(C)=O)CC[C@]6(OC(C)=O)C5C[C@@]43C)C1)C1C[C@H]3[C@@H]4CC[C@H]5C[C@@H](OC(C)=O)CC[C@]5(OC(C)=O)[C@H]4CC[C@]3(C)C12` (some centres undefined), the GI50 in the assay on RPMI-8226 is 37.2 µM (inactive); with SNB-19, 82.8 µM (inactive); with HCC 2998 it was 59.2 µM (inactive); with SNB-75, > 100 µM (inactive); in the assay with HCT-116 it was 42.5 µM (inactive); in the assay on NCI-H23 it was 83.4 µM (inactive). Further, the GI50 in the assay on A498 was > 100 µM (inactive); in the assay on NCI/ADR-RES, 43.6 µM (inactive); with 786-0 it was 64.4 µM (inactive); in the assay with UO-31 it was > 100 µM (inactive); in the assay with OVCAR-8, 46 µM (inactive); with EKVX it was > 100 µM (inactive). Moreover, the GI50 is > 100 µM (inactive) in the assay on TK-10; 75.5 µM (inactive) with U-251; 61.5 µM (inactive) in the assay with SF-295; > 100 µM (inactive) in the assay with SK-OV-3; > 100 µM (inactive) with SN12C; 51.1 µM (inactive) with MOLT-4.
Regarding `COc1ccc2c(c1)nc1n2C(c2c(F)cccc2Cl)SC1` (centres undefined), the GI50 in the assay with HCC 2998 was 4.2 µM (inactive); in the assay on SNB-75, 1.68 µM (inactive); in the assay with HCT-116, 4.14 µM (inactive); in the assay with NCI-H23 it was 3.59 µM (inactive); in the assay on A498, 5.89 µM (inactive); in the assay on NCI/ADR-RES, 1.56 µM (inactive). Also, the GI50 in the assay on 786-0 was 5.68 µM (inactive); with UO-31 it was > 20.2 µM (inactive); in the assay on OVCAR-8 it was 3.92 µM (inactive); in the assay on EKVX it was 26.1 µM (inactive); in the assay on TK-10 it was > 25.9 µM (inactive); in the assay with U-251, 5.08 µM (inactive). In addition, the GI50 with SF-295 is 2.74 µM (inactive); in the assay on SN12C it was > 22.6 µM (inactive); in the assay on HL-60 it was 1.26 µM (inactive).
On to `O=C(OC1CN2CCC1CC2)N(c1ccccc1)c1ccccc1` (centres undefined), for which the GI50 in the assay on RPMI-8226 is > 100 µM (inactive); in the assay with SNB-19, > 100 µM (inactive); in the assay with SNB-75 it was 46.2 µM (inactive); in the assay with HCT-116, 47.4 µM (inactive); with NCI-H23, > 100 µM (inactive); in the assay on A498, 24.7 µM (inactive). The GI50 in the assay with NCI/ADR-RES is > 100 µM (inactive); in the assay with 786-0 it was > 100 µM (inactive); with UO-31 it was 86.9 µM (inactive); in the assay on OVCAR-8, > 100 µM (inactive); in the assay with EKVX, > 100 µM (inactive); with RXF 393, 50.1 µM (inactive). The GI50 in the assay with TK-10 is 56.2 µM (inactive); in the assay on U-251 it was > 100 µM (inactive); with SF-295 it was 51.1 µM (inactive); in the assay with SK-OV-3 it was > 100 µM (inactive); in the assay on SN12C, > 100 µM (inactive); in the assay on MOLT-4, 43.1 µM (inactive). The GI50 with HL-60 was 24.9 µM (inactive).
For the molecule `O=C(c1ccc([N+](=O)[O-])cc1)C(Br)C(Br)c1ccnc2ccccc12` (centres undefined), the GI50 in the assay with RPMI-8226 is 2.23 µM (inactive); with SNB-19 it was 5.98 µM (inactive); in the assay with SNB-75, 4.06 µM (inactive); in the assay with HCT-116, 1.92 µM (inactive); in the assay on NCI-H23, 2.55 µM (inactive); with A498, 3.99 µM (inactive). The GI50 was 8.45 µM (inactive) with NCI/ADR-RES; 2.54 µM (inactive) in the assay on 786-0; 1.77 µM (inactive) with UO-31; 9.08 µM (inactive) with OVCAR-8; 8.79 µM (inactive) in the assay on EKVX; 8.93 µM (inactive) with RXF 393. The GI50 in the assay on TK-10 was 4.58 µM (inactive); in the assay with U-251 it was 1.75 µM (inactive); in the assay with SF-295, 9.06 µM (inactive); in the assay on SK-OV-3 it was 17.8 µM (inactive); with SN12C, 4.46 µM (inactive); in the assay on MOLT-4, 2.94 µM (inactive). Further, in the assay with HL-60, the GI50 was 2.8 µM (inactive).
For `CC(C)(C)OC(=O)n1c(-c2ccccc2F)cc(=O)c2cc3c(cc21)OCO3`, the GI50 was 0.0364 µM (active) in the assay with RPMI-8226; 0.145 µM (active) with SNB-19; 0.0715 µM (active) in the assay on HCC 2998; 0.0318 µM (active) in the assay on SNB-75; 0.0426 µM (active) in the assay with HCT-116; 0.398 µM (active) with NCI-H23. Besides, the GI50 with A498 is 0.141 µM (active); in the assay with NCI/ADR-RES, 0.0231 µM (active); with 786-0, 0.0541 µM (active); in the assay with UO-31, 0.188 µM (active); in the assay with OVCAR-8 it was 0.0906 µM (active); in the assay on TK-10 it was 4.66 µM (inactive). Also, the GI50 in the assay with U-251 was 0.0476 µM (active); with SF-295 it was 0.05 µM (active); in the assay on SK-OV-3, 0.12 µM (active); with MOLT-4, 0.106 µM (active); with HL-60 it was 0.0451 µM (active).
As to `C[C@@H](c1ccccc1)n1c(N)c(C#N)c2ccc([N+](=O)[O-])cc2c1=O`, the GI50 in the assay on SNB-19 is 13.6 µM (inactive); with HCC 2998 it was 15.5 µM (inactive); with SNB-75, 5.51 µM (inactive); in the assay on HCT-116 it was 14.4 µM (inactive); with NCI-H23, 18.9 µM (inactive); in the assay on A498 it was 6.27 µM (inactive). Moreover, the GI50 is 7.1 µM (inactive) in the assay with NCI/ADR-RES; 15 µM (inactive) in the assay on 786-0; 5.12 µM (inactive) with UO-31; 12 µM (inactive) with OVCAR-8; 11.6 µM (inactive) with TK-10; 18.7 µM (inactive) with U-251. The results for the GI50 in the assay with SN12C and with HL-60 were 12 µM (inactive) and 8.75 µM (inactive), respectively.
For `COC(=O)C1CCC(=O)N1CN(C(C)=O)c1cc(OC)ccc1OC` (centres undefined), the GI50 with RPMI-8226, in the assay with SNB-19, with SNB-75, with HCT-116, in the assay with NCI-H23 and with A498 was > 100 µM (inactive) throughout. Moreover, the GI50 in the assay on NCI/ADR-RES, in the assay with 786-0, in the assay with UO-31, with OVCAR-8, with EKVX and in the assay on RXF 393 was > 100 µM (inactive) each time. Besides, the GI50 in the assay on TK-10, in the assay with U-251, in the assay on SF-295, in the assay on SK-OV-3, in the assay with SN12C and with MOLT-4 was > 100 µM (inactive) in each case. Also, the GI50 with HL-60 was > 100 µM (inactive).
Turning to `CCCCOC(=O)NC(Nc1cccc(C(F)(F)F)c1)(C(F)(F)F)C(F)(F)F`, the GI50 was 17.2 µM (inactive) in the assay with RPMI-8226; > 100 µM (inactive) in the assay with SNB-19; 33.6 µM (inactive) with SNB-75; > 100 µM (inactive) in the assay on HCT-116; 50.8 µM (inactive) with NCI-H23; > 100 µM (inactive) in the assay on A498. Moreover, the GI50 was 45.3 µM (inactive) in the assay on NCI/ADR-RES; 84.1 µM (inactive) in the assay on 786-0; 46.5 µM (inactive) in the assay with UO-31; 57.4 µM (inactive) in the assay on OVCAR-8; 51.5 µM (inactive) in the assay on EKVX; 50.7 µM (inactive) in the assay on RXF 393. The GI50 in the assay with TK-10 is 71.1 µM (inactive); in the assay on U-251 it was 36.1 µM (inactive); with SF-295 it was 26.6 µM (inactive); with SN12C, 68.7 µM (inactive); with MOLT-4 it was 34.8 µM (inactive); in the assay with HL-60 it was 23.4 µM (inactive).
`O=C(CC(C(=O)c1ccsc1)c1cccs1)c1ccsc1` (centres undefined): the GI50 with RPMI-8226 was 12.1 µM (inactive); in the assay with SNB-19 it was > 100 µM (inactive); with HCC 2998, > 100 µM (inactive); in the assay on SNB-75, 27.4 µM (inactive); in the assay on NCI-H23, 32.6 µM (inactive); in the assay on A498 it was 81.8 µM (inactive). Further, the GI50 is 17.5 µM (inactive) in the assay with NCI/ADR-RES; > 100 µM (inactive) in the assay with 786-0; 25.8 µM (inactive) in the assay with UO-31; 60.5 µM (inactive) in the assay on OVCAR-8; 49.9 µM (inactive) in the assay with EKVX; > 100 µM (inactive) in the assay on TK-10. Further, the GI50 with U-251 is > 100 µM (inactive); in the assay with SF-295, 43.7 µM (inactive); in the assay on SK-OV-3 it was 54.6 µM (inactive); in the assay with SN12C it was 65.6 µM (inactive); in the assay with MOLT-4 it was 28.5 µM (inactive); with HL-60 it was 31.8 µM (inactive).
